Common to all, as to format: functional, cell-based
What all share (settings): Mus musculus, N2a

A short description of assay [1]: Effect on the uptake of [3H]5-HT into differentiated N-2a cells.
A short description of assay [2]: Inhibition of [3H]- Thymidine incorporation into the DNA of differentiated neuroblastoma clone N-2a cells.
Assay [3] in a line: Inhibition of [3H]- Thymidine incorporation into the DNA of differentiated neuroblastoma clone N-2a cells.

Structures are written as SMILES.

With `NCCc1c[nH]c2cc(O)c(O)cc12`, the concentration for half-maximal inhibition (IC50) in assay [1] was 17.8 µM; in assay [2], 92 µM.

For the molecule `CN1CC(=O)NC1=N.NCCc1c[nH]c2cc(O)c(O)c(F)c12`, the 50% inhibitory concentration (IC50) in assay [1] was 0.55 µM; in assay [3], 117 µM.

As to `CN1CC(=O)NC1=N.NCCc1c[nH]c2c(F)c(O)c(O)cc12`, the results for the 50% inhibitory concentration (IC50) in assay [1] and in assay [3] were 0.76 µM and 125 µM, respectively.

As to `CN1CC(=O)NC1=N.NCCc1c[nH]c2c(F)c(O)c(O)c(F)c12`, the figures for the half-inhibitory concentration (IC50) in assay [1] and in assay [3] were 1.36 µM and 135 µM, respectively.

(Values after ChEMBL document CHEMBL1124877, “Synthesis and biological evaluation of 4-fluoro-, 7-fluoro-, and 4,7-difluoro-5,6-dihydroxytryptamines” (J Med Chem, 1990).)
